Source: US20260207636A1, “PRODRUGS OF DIMETHOXYPHENYL[…] SEROTONIN RECEPTORS” (priority 2022, published 2026)

Legend:
[1] = Compound chemical stability in SGF without pepsin; format: physicochemical
Procedure: (§1) Compounds 1-6 were assessed for their stability in various environments, including phosphate buffered saline (PBS), simulated gastric fluid (SGF) with pepsin, SGF without pepsin, and mouse plasma, using standard stability assay protocols.

[2] = Compound chemical stability in SGF with pepsin; format: physicochemical
Procedure: as §1

[3] = Compound chemical stability in PBS (pH 6.5); format: physicochemical
Procedure: as §1

[4] = Compound mouse plasma stability; format: in vitro ADME
Procedure: as §1

SMILES	% Remaining ([1]; 0 minutes) [%]	% Remaining ([1]; 30 minutes) [%]	% Remaining ([1]; 60 minutes) [%]	% Remaining ([1]; 120 minutes) [%]	% Remaining ([1]; 240 minutes) [%]	% Remaining ([2]; 0 minutes) [%]	% Remaining ([2]; 30 minutes) [%]	% Remaining ([2]; 60 minutes) [%]	% Remaining ([2]; 120 minutes) [%]	% Remaining ([2]; 240 minutes) [%]	% Remaining ([3]; 0 minutes) [%]	% Remaining ([3]; 30 minutes) [%]	% Remaining ([3]; 60 minutes) [%]	% Remaining ([3]; 120 minutes) [%]	% Remaining ([3]; 240 minutes) [%]	% Remaining ([4]; 0 minutes) [%]	% Remaining ([4]; 30 minutes) [%]	% Remaining ([4]; 60 minutes) [%]	% Remaining ([4]; 120 minutes) [%]	% Remaining ([4]; 240 minutes) [%]
COc1ccc(OC)c(CCN(Cc2cc(C)cc(Cl)c2)Cc2oc(=O)oc2C)c1 [Compound 2, 4-(((3-Chloro-5-methylbenzyl)(2,5-dimethoxyphenethyl)amino)methyl)-5-methyl-1,3-dioxol-2-one]	100	100	96	86	72	100	93	93	84	70	100	66	43	15	2	100	73	61	41	20
COc1ccc(OC)c(CCN(Cc2cc(C)cc(Cl)c2)C(=O)OCc2oc(=O)oc2C)c1 [Compound 3, (5-Methyl-2-oxo-1,3-dioxol-4-yl)methyl (3-chloro-5-methylbenzyl)(2,5-dimethoxyphenethyl)carbamate]	100	105	109	106	107	100	105	105	93	106	100	97	94	89	67	100	00	00	00	00
COc1ccc(OC)c(CCN(Cc2cc(C)cc(Cl)c2)C(=O)OC(C)OC(=O)C(C)(C)C)c1 (stereo not shown) [Compound 4, 1-(((3-Chloro-5-methylbenzyl)(2,5-dimethoxyphenethyl)carbamoyl)oxy)ethyl pivalate]	100	90	89	96	88	100	93	96	94	105	100	102	101	102	116	100	2	1	00	00
CCOC(=O)N(CCc1cc(OC)ccc1OC)Cc1cc(C)cc(Cl)c1 [Compound 5, Ethyl (3-chloro-5-methylbenzyl)(2,5-dimethoxyphenethyl)carbamate]	100	100	88	94	101	100	97	92	90	80	100	96	99	101	94	100	88	86	91	87
COc1ccc(OC)c(CCN(Cc2cc(C)cc(Cl)c2)C(=O)CN)c1 [Compound 6, 2-Amino-N-(3-chloro-5-methylbenzyl)-N-(2,5-dimethoxyphenethyl)acetamide]	100	98	99	95	96	100	95	97	96	94	100	91	94	93	93	100	85	82	89	86
